Reference: ChEMBL document CHEMBL4715697, “Synthesis and biological activity of benzamide DNA minor groove binders” (2016)

Key:
Format in all cases: functional
IGROV-1 [1] = experiment: Growth inhibition of human IGROV-1 cells assessed as cell growth at 1 uM incubated for 48 hrs by sulforhodamine B assay relative to control; details: read-out: Activity
MDA-MB-435 [2] = experiment: Growth inhibition of human MDA-MB-435 cells assessed as cell growth at 0.1 uM incubated for 48 hrs by sulforhodamine B assay relative to control; details: read-out: Activity
CAKI-1 = experiment: Growth inhibition of human CAKI-1 cells assessed as cell growth at 100 uM incubated for 48 hrs by sulforhodamine B assay relative to control; details: read-out: Activity
MDA-MB-435 [3] = experiment: Growth inhibition of human MDA-MB-435 cells assessed as cell growth at 1 uM incubated for 48 hrs by sulforhodamine B assay relative to control; details: read-out: Activity
COLO 205 [4] = experiment: Growth inhibition of human COLO 205 cells assessed as cell growth at 100 uM incubated for 48 hrs by sulforhodamine B assay relative to control; details: read-out: Activity
SN12C = experiment: Growth inhibition of human SN12C cells assessed as cell growth at 1 uM incubated for 48 hrs by sulforhodamine B assay relative to control; details: read-out: Activity
MOLT-4 [5] = experiment: Growth inhibition of human MOLT-4 cells assessed as cell growth at 0.1 uM incubated for 48 hrs by sulforhodamine B assay relative to control; details: read-out: Activity
COLO 205 [6] = experiment: Growth inhibition of human COLO 205 cells incubated for 48 hrs by sulforhodamine B assay
PC-3 [7] = experiment: Growth inhibition of human PC-3 cells assessed as cell growth at 100 uM incubated for 48 hrs by sulforhodamine B assay relative to control; details: read-out: Activity
SK-MEL-28 = experiment: Growth inhibition of human SK-MEL-28 cells assessed as cell growth at 1 uM incubated for 48 hrs by sulforhodamine B assay relative to control; details: read-out: Activity
MCF7 = experiment: Growth inhibition of human MCF7 cells assessed as cell growth at 0.1 uM incubated for 48 hrs by sulforhodamine B assay relative to control; details: read-out: Activity
T47D [8] = experiment: Growth inhibition of human T47D cells assessed as cell growth at 1 uM incubated for 48 hrs by sulforhodamine B assay relative to control; details: read-out: Activity
SK-MEL-2 = experiment: Growth inhibition of human SK-MEL-2 cells assessed as cell growth at 1 uM incubated for 48 hrs by sulforhodamine B assay relative to control; details: read-out: Activity
EKVX = experiment: Growth inhibition of human EKVX cells incubated for 48 hrs by sulforhodamine B assay
TK-10 = experiment: Growth inhibition of human TK-10 cells assessed as cell growth at 100 uM incubated for 48 hrs by sulforhodamine B assay relative to control; details: read-out: Activity
PC-3 [9] = experiment: Growth inhibition of human PC-3 cells assessed as cell growth at 0.1 uM incubated for 48 hrs by sulforhodamine B assay relative to control; details: read-out: Activity
NCI-H522 = experiment: Growth inhibition of human NCI-H522 cells assessed as cell growth at 0.01 uM incubated for 48 hrs by sulforhodamine B assay relative to control; details: read-out: Activity
SF-539 = experiment: Growth inhibition of human SF-539 cells incubated for 48 hrs by sulforhodamine B assay
NCI-H460 = experiment: Growth inhibition of human NCI-H460 cells assessed as cell growth at 0.1 uM incubated for 48 hrs by sulforhodamine B assay relative to control; details: read-out: Activity
UACC-62 = experiment: Growth inhibition of human UACC-62 cells assessed as cell growth at 0.1 uM incubated for 48 hrs by sulforhodamine B assay relative to control; details: read-out: Activity
Malme-3M = experiment: Growth inhibition of human Malme-3M cells incubated for 48 hrs by sulforhodamine B assay
PC-3 [10] = experiment: Growth inhibition of human PC-3 cells assessed as cell growth at 0.01 uM incubated for 48 hrs by sulforhodamine B assay relative to control; details: read-out: Activity
786-0 = experiment: Growth inhibition of human 786-0 cells assessed as cell growth at 100 uM incubated for 48 hrs by sulforhodamine B assay relative to control; details: read-out: Activity
KM12 = experiment: Growth inhibition of human KM12 cells incubated for 48 hrs by sulforhodamine B assay
M14 [11] = experiment: Growth inhibition of human M14 cells assessed as cell growth at 1 uM incubated for 48 hrs by sulforhodamine B assay relative to control; details: read-out: Activity
SNB-75 = experiment: Growth inhibition of human SNB-75 cells assessed as cell growth at 0.01 uM incubated for 48 hrs by sulforhodamine B assay relative to control; details: read-out: Activity
DU-145 = experiment: Growth inhibition of human DU-145 cells assessed as cell growth at 0.01 uM incubated for 48 hrs by sulforhodamine B assay relative to control; details: read-out: Activity
MDA-MB-468 = experiment: Growth inhibition of human MDA-MB-468 cells assessed as cell growth at 0.1 uM incubated for 48 hrs by sulforhodamine B assay relative to control; details: read-out: Activity
IGROV-1 [12] = experiment: Growth inhibition of human IGROV-1 cells assessed as cell growth at 0.01 uM incubated for 48 hrs by sulforhodamine B assay relative to control; details: read-out: Activity
RPMI-8226 = experiment: Growth inhibition of human RPMI-8226 cells assessed as cell growth at 1 uM incubated for 48 hrs by sulforhodamine B assay relative to control; details: read-out: Activity
M14 [13] = experiment: Growth inhibition of human M14 cells incubated for 48 hrs by sulforhodamine B assay
SF-295 = experiment: Growth inhibition of human SF-295 cells assessed as cell growth at 0.01 uM incubated for 48 hrs by sulforhodamine B assay relative to control; details: read-out: Activity
MOLT-4 [14] = experiment: Growth inhibition of human MOLT-4 cells assessed as cell growth at 1 uM incubated for 48 hrs by sulforhodamine B assay relative to control; details: read-out: Activity
HCT-15 = experiment: Growth inhibition of human HCT-15 cells assessed as cell growth at 100 uM incubated for 48 hrs by sulforhodamine B assay relative to control; details: read-out: Activity
T47D [15] = experiment: Growth inhibition of human T47D cells assessed as cell growth at 0.1 uM incubated for 48 hrs by sulforhodamine B assay relative to control; details: read-out: Activity
M14 [16] = experiment: Growth inhibition of human M14 cells assessed as cell growth at 100 uM incubated for 48 hrs by sulforhodamine B assay relative to control; details: read-out: Activity
[17] = read-out: LC50 (the source's name)
[18] = read-out: pLC50 (the source's name) (converted)

CC(=O)Nc1cc(CO[Si](C)(C)C(C)(C)C)cc(NC(=O)c2ccc(C(=O)Nc3cccc(NC(=O)CCCN(C)C)c3)cc2)c1
> 75 µM: GI50 (COLO 205 [6]; read-out: GI50) | LC50 (COLO 205 [6]; read-out: LC50) | TGI (COLO 205 [6]; read-out: TGI) | GI50 (EKVX; read-out: GI50) | LC50 (EKVX; read-out: LC50) | TGI (EKVX; read-out: TGI) | GI50 (SF-539; read-out: GI50) | CC50 (SF-539; [17]) | TGI (SF-539; read-out: TGI) | LC50 (concentration killing 50% of cells) (Malme-3M; read-out: LC50) | TGI (Malme-3M; read-out: TGI) | GI50 (KM12; read-out: GI50) | CC50 (KM12; [17]) | TGI (KM12; read-out: TGI) | GI50 (M14 [13]; read-out: GI50) | CC50 (M14 [13]; [17]) | TGI (M14 [13]; read-out: TGI)
112%: growth at 1 µM (SK-MEL-2)
88%: growth at 100 µM (786-0)
110%: growth at 1 µM (RPMI-8226)
100%: growth at 1 µM (SN12C) | growth at 0.01 µM (PC-3 [10])
101%: growth at 0.1 µM (MCF7) | growth at 1 µM (M14 [11])
98%: growth at 0.1 µM (MDA-MB-435 [2]) | growth at 1 µM (SK-MEL-28) | growth at 100 µM (TK-10) | growth at 0.01 µM (SF-295)
89%: growth at 0.01 µM (NCI-H522)
97%: growth at 0.1 µM (PC-3 [9]) | growth at 0.1 µM (T47D [15])
99%: growth at 0.1 µM (NCI-H460) | growth at 0.01 µM (IGROV-1 [12])
81%: growth at 1 µM (IGROV-1 [1])
103%: growth at 0.01 µM (DU-145)
82%: growth at 100 µM (HCT-15)
94%: growth at 1 µM (MDA-MB-435 [3]) | growth at 0.1 µM (UACC-62)
36.3 µM: GI50 (Malme-3M; read-out: GI50) | GI50 (Malme-3M; read-out: pGI50 (converted))
91%: growth at 0.1 µM (MOLT-4 [5]) | growth at 1 µM (MOLT-4 [14])
77%: growth at 100 µM (CAKI-1)
107%: growth at 1 µM (T47D [8])
80%: growth at 100 µM (COLO 205 [4])
> 75.9 µM: GI50 (COLO 205 [6]; read-out: pGI50 (converted)) | LC50 (COLO 205 [6]; read-out: pLC50 (converted)) | TGI (COLO 205 [6]; read-out: pTGI) | GI50 (EKVX; read-out: pGI50 (converted)) | LC50 (EKVX; read-out: pLC50 (converted)) | TGI (EKVX; read-out: pTGI) | GI50 (SF-539; read-out: pGI50 (converted)) | CC50 (SF-539; [18]) | TGI (SF-539; read-out: pTGI) | LC50 (concentration killing 50% of cells) (Malme-3M; read-out: pLC50 (converted)) | TGI (Malme-3M; read-out: pTGI) | GI50 (KM12; read-out: pGI50 (converted)) | CC50 (KM12; [18]) | TGI (KM12; read-out: pTGI) | GI50 (M14 [13]; read-out: pGI50 (converted)) | CC50 (M14 [13]; [18]) | TGI (M14 [13]; read-out: pTGI)
75%: growth at 100 µM (M14 [16])
93%: growth at 100 µM (PC-3 [7]) | growth at 0.01 µM (SNB-75) | growth at 0.1 µM (MDA-MB-468)
